Patent US20240415918A1, “Polypeptide and its use as a CCK receptor agonist/antagonist” (Centre for Regenerative Medicine & Health, Hong Kong …, priority 2021, published 2024)
Where a SMILES comes first, the peptide text is derived from it. [ ]: non-standard residue; d: D form. sY = N[C@@H](Cc1ccc(OS(=O)(=O)O)cc1)C(=O)O; Phe(3-Br) = N[C@@H](Cc1cccc(Br)c1)C(=O)O

Tests used:
[1] = molecular target: T1, CCK-B receptors (CHO-CCK) (Homo sapiens, UniProt P32239); assay: Calcium flux (Fluo-8) agonist test on CHO-CCK model cells; format: cell-based; conditions: for EC50: CHO-CCK cells; for Agonistic Activity (%) at 10 μM: compound at 10 μM, percentage of signal of 20 nM CCK8 alone
T1 construct: expressed in transfected cells; host or cells: CHO (CHO-CCK model cells)
T1 sequence (P32239 1-447): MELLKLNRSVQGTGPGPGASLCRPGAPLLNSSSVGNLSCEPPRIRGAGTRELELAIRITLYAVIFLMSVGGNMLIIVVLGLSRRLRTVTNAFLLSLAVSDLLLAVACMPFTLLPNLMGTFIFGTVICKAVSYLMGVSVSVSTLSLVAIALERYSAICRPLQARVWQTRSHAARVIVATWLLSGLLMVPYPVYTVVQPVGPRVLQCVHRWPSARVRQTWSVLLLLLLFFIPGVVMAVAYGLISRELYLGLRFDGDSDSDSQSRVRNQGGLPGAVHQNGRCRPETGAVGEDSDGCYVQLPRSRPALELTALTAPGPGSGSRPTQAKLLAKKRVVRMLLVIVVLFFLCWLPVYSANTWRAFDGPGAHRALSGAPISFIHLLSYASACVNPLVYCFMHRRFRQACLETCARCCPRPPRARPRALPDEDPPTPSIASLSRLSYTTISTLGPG
Method in brief: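 Agonist-mode Fluo-8 calcium flux read on CHO-CCK cells after dye loading 30 min at 37 °C plus 30 min at room temperature.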

[2] = molecular target: T1, CCK-B receptors (CHO-CCK); assay: Calcium flux (Fluo-8) antagonist test on CHO-CCK model cells in presence of CCK8; format: cell-based
Method: The compound was formulated to a 10 mM mother liquor with DMSO, and then diluted into a series of 9 concentrations with a 3-fold gradient to form a 1000× stock solution. […] Prepare 1×Fluo-8 analysis buffer: mix 9 mL of HHBS, 1 mL of 10× Pluronic F127 Plus and 20 μL of Fluo-8 thoroughly for later use. • 3. Add Fluo-8 dye working solution to the cell plate, 100 μL/well. First incubate in a 37° C. incubator for 30 min, and then take it out and incubate at room temperature in the dark for 30 min. • 4. In the process of incubating cells, the compounds to be detected were prepared with HHBS. • 5. […] The agonism/antagonism EC50 of the compound can be obtained by plotting the fitting curve with the agonism/antagonism percentage as Y-axis and the concentration of the compound as X-axis.

[3] = compound alone, 100% = 20 nM CCK8
[4] = compound together with 10 nM CCK8
[5] = compound together with 10 nM CCK8, bound in μM
[6] = Fluo-8 calcium flux, 100% control = 20 nM CCK8
[7] = Fluo-8 calcium flux, bound in μM

**Q.** How did the EC50 [1, 3] turn out when CSCC[C@H](NC(=O)[C@H](N)Cc1c[nH]c2ccccc12)C(=O)N[C@@H](CC(=O)O)C(=O)N[C@@H](Cc1cc(F)c(F)c(F)c1)C(N)=O [HT-40, D-Trp-Met-Asp-Phe(3,4,5-TriF)-NH2] was run?
**A.** 0.078 µM

**Q.** What about the “Agonistic Activity (%) at 10 μM” value [1] of the same molecule?
**A.** 98.25%

**Q.** What about the EC50 [2, 4] of the same molecule?
**A.** 0.244 µM

**Q.** With CSCC[C@H](NC(=O)[C@H](N)Cc1c[nH]c2ccccc12)C(=O)N[C@@H](CC(=O)O)C(=O)N[C@@H](Cc1cccc(I)c1)C(N)=O [HT-28, D-Trp-Met-Asp-Phe(3-I)-NH2] as the molecule, how does the EC50 [1, 3] read?
**A.** 0.154 µM

**Q.** And the “Agonistic Activity (%) at 10 μM” value [1]?
**A.** 49.93%

**Q.** What about the EC50 [2, 4] of the same molecule?
**A.** 0.149 µM

**Q.** With CSCC[C@H](NC(=O)[C@@H](CC(C)C)NC(C)=O)C(=O)N[C@@H](CC(=O)O)C(=O)N[C@@H](Cc1cccc(Br)c1)C(N)=O [HT-183, Ac-D-Leu-Met-Asp-Phe(3-Br)-NH2] (Ac-[dL]MD[Phe(3-Br)]-NH2) as the molecule, how does the EC50 [1, 3] read?
**A.** 4.46 µM

**Q.** And the EC50 [2, 4]?
**A.** 9.41 µM

**Q.** C[S+]([O-])CC[C@H](NC(=O)[C@H](N)Cc1c[nH]c2ccccc12)C(=O)N[C@@H](CC(=O)O)C(=O)N[C@@H](Cc1cccc(F)c1)C(N)=O (stereo partly drawn) [HT-44, D-Trp-Met(O)-Asp-Phe(3-F)-NH2] was tested. Which “Agonistic Activity (%) at 10 μM” value [1] did it give?
**A.** 34.63%

**Q.** What about the EC50 [2, 5] of the same molecule?
**A.** > 10 µM

**Q.** CCCC[C@H](NC(=O)[C@@H](Cc1c(C)[nH]c2ccccc12)NC(C)=O)C(=O)N[C@@H](CCC(=O)O)C(=O)N[C@@H](Cc1cn(C)c2ccccc12)C(N)=O [HT-247, Ac-(2-Me-Trp)-Nle-Glu-(1-Me-Trp)-NH2] was tested. Which EC50 [1, 6] did it give?
**A.** 1.9 µM

**Q.** What about the EC50 ([2]; in presence of 10 nM CCK8) of the same molecule?
**A.** 0.62 µM

**Q.** Which EC50 [1, 6] does the source give for CCCC[C@H](NC(=O)[C@@H](Cc1cn(C)c2ccccc12)NC(C)=O)C(=O)N[C@@H](CCC(=O)O)C(=O)N[C@@H](Cc1cccc(Br)c1)C(N)=O [HT-243, Ac-(1-Me-Trp)-Nle-Glu-Phe(3-Br)-NH2] here?
**A.** 0.44 µM

**Q.** What about the EC50 ([2]; in presence of 10 nM CCK8) of the same molecule?
**A.** 1.41 µM

**Q.** What does the source list for COC(=O)C[C@H](NC(=O)[C@H](CCSC)NC(=O)[C@H](N)Cc1c[nH]c2ccccc12)C(=O)N[C@@H](Cc1cc(Cl)cc(Cl)c1)C(N)=O [HT-89, D-Trp-Met-Asp(Ome)-Phe(3,5-DiCl)-NH2]?
**A.** EC50 [1, 3]: 3.21 µM; Agonistic Activity (%) at 10 μM [1]: 44.86%; EC50 [2, 4]: 3.62 µM

**Q.** For CCCC[C@H](NC(=O)[C@@H](Cc1cccc(Br)c1)NC(C)=O)C(=O)N[C@@H](CCC(=O)O)C(=O)N[C@@H](Cc1cccc(Br)c1)C(N)=O [HT-237, Ac-Phe(3-Br)-Nle-Glu-Phe(3-Br)-NH2], which EC50 [1, 7] is on record?
**A.** > 10 µM

**Q.** What about the EC50 ([2]; in presence of 10 nM CCK8, bound in μM) of the same molecule?
**A.** > 10 µM

**Q.** For CS(=O)(=O)CC[C@H](NC(=O)[C@H](N)Cc1c[nH]c2ccccc12)C(=O)N[C@@H](CC(=O)O)C(=O)N[C@@H](Cc1ccc(N=[N+]=[N-])cc1)C(N)=O [HT-65, D-Trp-Met(O2)-Asp-Phe(4-N3)-NH2], which “Agonistic Activity (%) at 10 μM” value [1] is on record?
**A.** 8.35%

**Q.** And the EC50 [2, 5]?
**A.** > 10 µM

**Q.** Which results are given for CSCC[C@H](NC(=O)[C@H](Cc1ccc(OS(=O)(=O)O)cc1)NC(C)=O)C(=O)NCC(=O)N[C@@H](Cc1c[nH]c2ccccc12)C(N)=O [HT-209, Ac-Tyr(SO3H)-Met-Gly-Trp-NH2] (Ac-[sY]MGW-NH2)?
**A.** EC50 [1, 7]: > 10 µM; EC50 ([2]; in presence of 10 nM CCK8): 2.15 µM

**Q.** How did the EC50 [1, 3] turn out when CSCC[C@H](NC(=O)[C@H](N)Cc1c[nH]c2ccccc12)C(=O)N[C@@H](CC(=O)O)C(=O)N[C@@H](Cc1ccc(C#N)cc1)C(N)=O [HT-32, D-Trp-Met-Asp-Phe(4-CN)-NH2] was run?
**A.** 1.13 µM

**Q.** And the “Agonistic Activity (%) at 10 μM” value [1]?
**A.** 57.37%

**Q.** And the EC50 [2, 4]?
**A.** 2.66 µM

**Q.** Which EC50 [1, 6] does the source give for CCCC[C@H](NC(=O)[C@@H](Cc1c(C)[nH]c2ccccc12)NC(C)=O)C(=O)N[C@@H](CCC(=O)O)C(=O)N[C@@H](Cc1c(C)[nH]c2ccccc12)C(N)=O [HT-248, Ac-(2-Me-Trp)-Nle-Glu-(2-Me-Trp)-NH2] here?
**A.** 0.0331 µM

**Q.** And the EC50 ([2]; in presence of 10 nM CCK8)?
**A.** 0.47 µM

**Q.** What does the source list for COC(=O)C[C@H](NC(=O)[C@H](CCSC)NC(=O)[C@H](N)Cc1c[nH]c2ccccc12)C(=O)N[C@@H](Cc1cccc(I)c1)C(N)=O [HT-79, D-Trp-Met-Asp(Ome)-Phe(3-I)-NH2]?
**A.** EC50 [1, 3]: 2.29 µM; Agonistic Activity (%) at 10 μM [1]: 38.37%; EC50 [2, 4]: 1.99 µM
